Measurements: US20050009903A1, “CB2-selective cannabinoid analogues” (priority 2003, published 2005)

Columns and labels:
CB2 receptor [1] = target: T1, CB2 receptor (Homo sapiens, UniProt P34972); test: [35S]GTPγS binding in human CB2 receptor-expressing CHO cell membranes; assay type: biochemical; design: expressed in transfected cells
[2] = tested on: mouse model of multiple sclerosis; details: cited from earlier work
CB1 receptor [3] = target: T2, CB1 receptor (Rattus norvegicus, UniProt P20272); details: previously reported by the applicants (literature refs); read-out: Ki at CB1 receptor; cited from earlier work
T2 construct: from tissue; host or cells: rat whole brain, P2 membranes
T2 sequence (P20272 whole entry): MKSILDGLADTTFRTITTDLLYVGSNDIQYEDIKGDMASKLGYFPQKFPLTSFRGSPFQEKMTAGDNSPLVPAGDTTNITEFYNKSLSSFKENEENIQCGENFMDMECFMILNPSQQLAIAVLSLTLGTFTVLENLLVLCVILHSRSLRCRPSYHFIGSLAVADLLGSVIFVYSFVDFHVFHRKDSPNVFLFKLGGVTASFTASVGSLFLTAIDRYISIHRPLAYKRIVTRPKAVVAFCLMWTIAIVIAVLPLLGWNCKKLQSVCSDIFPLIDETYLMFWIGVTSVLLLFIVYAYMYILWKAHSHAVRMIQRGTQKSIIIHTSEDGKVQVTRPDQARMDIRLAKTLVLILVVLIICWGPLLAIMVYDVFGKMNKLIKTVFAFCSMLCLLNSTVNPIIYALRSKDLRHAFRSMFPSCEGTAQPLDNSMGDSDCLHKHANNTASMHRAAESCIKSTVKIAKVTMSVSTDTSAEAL

glioma tumors = details: cited from earlier work
CB2 receptor [4] = target: T1, CB2 receptor; design: expressed in transfected cells; details: previously reported by the applicants (literature refs); listed as JWH-133; read-out: Ki at CB2 receptor; cited from earlier work
CB2 receptor [5] = target: T1, CB2 receptor; test: CB2 assay: displacement of [3H]CP-55,940 from cloned human CB2 receptor preparation (transfected HEK 293 cells); assay type: binding; design: expressed in transfected cells; details: Table 1; ratio of Ki values
[6] = blocked by CB2 antagonist SR-144528; cited from earlier work
mouse behavioral tetrad = details: cited from earlier work
[7] = blocked by CB2 antagonist SR-144528; cited from earlier work; remark: listed apart in the source
CB1 receptor [8] = target: CB1 receptor (Homo sapiens, UniProt P21554); details: read-out: Ki CB1 receptor; Hanus et al.; cited from earlier work
CB1 receptor (Homo sapiens, UniProt P21554), sequence (P21554 whole entry): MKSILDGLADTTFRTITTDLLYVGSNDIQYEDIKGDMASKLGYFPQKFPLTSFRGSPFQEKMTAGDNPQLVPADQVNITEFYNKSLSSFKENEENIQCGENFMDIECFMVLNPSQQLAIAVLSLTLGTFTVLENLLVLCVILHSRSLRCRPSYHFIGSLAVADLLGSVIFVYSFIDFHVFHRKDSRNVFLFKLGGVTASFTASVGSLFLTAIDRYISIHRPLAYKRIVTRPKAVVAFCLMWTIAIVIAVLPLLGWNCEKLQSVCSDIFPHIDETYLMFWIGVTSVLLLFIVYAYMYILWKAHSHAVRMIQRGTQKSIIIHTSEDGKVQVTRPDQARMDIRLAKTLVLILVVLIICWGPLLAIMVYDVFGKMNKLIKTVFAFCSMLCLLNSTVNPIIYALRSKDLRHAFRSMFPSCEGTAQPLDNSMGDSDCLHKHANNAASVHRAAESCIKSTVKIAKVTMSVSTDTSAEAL

T1 sequence (P34972 whole entry): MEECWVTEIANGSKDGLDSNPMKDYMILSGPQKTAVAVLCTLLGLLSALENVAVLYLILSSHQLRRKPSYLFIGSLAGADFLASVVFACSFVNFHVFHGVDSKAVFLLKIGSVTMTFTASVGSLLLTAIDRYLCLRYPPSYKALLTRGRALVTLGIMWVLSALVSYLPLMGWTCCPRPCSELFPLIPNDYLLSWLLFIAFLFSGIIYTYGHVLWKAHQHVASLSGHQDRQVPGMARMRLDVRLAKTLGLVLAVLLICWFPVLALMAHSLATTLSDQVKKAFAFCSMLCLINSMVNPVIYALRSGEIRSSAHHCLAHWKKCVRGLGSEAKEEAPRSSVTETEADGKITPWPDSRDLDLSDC

Row | SMILES | Emax relative to CP-55,940 (CB2 receptor [1]) | Emax (% CP-55940) (CB2 receptor [1]; Table 4, mean ± SEM, per cent relative to 3 μM CP-55,940) | efficacy in the [35S]GTPγS assay relative to CP-55,940 (CB2 receptor [1]; in words) | EC50 (CB2 receptor [1]; read-out: EC50 in the [35S]GTPγS assay) | reduction of spasticity [2] | Ki (CB1 receptor [3]) | in vivo growth of glioma tumors (glioma tumors) | Ki (CB2 receptor [4]) | Ratio CB1/CB2 (CB2 receptor [5]) | effect on blood pressure [6] | activity in the mouse behavioral tetrad (mouse behavioral tetrad) | peripheral analgesic activity [7] | Ki (CB1 receptor [8])
1 | CCCC(C)(C)c1ccc2c(c1)OC(C)(C)C1CC=C(C)CC21 (stereo not shown) [Compound 3, 3-(1′,1′-Dimethylbutyl)-1-deoxy-Δ^8-THC, reference compound] | 111.5±13.6% | 111.5 ± 13.6 % CP-55940 | highly efficacious | 4 ± 1 nM | effective in reducing spasticity | 677 ± 132 nM | inhibits the in vivo growth of glioma tumors | 3.4 ± 1 nM | 199 | – | – | – | –
2 | CCCCCCC(C)(C)c1cc(OC)c([C@@H]2C=C(CO)[C@@H]3C[C@H]2C3(C)C)c(OC)c1 [HU-308] | – | – | – | – | – | – | – | – | – | reduces blood pressure | inactive | shows peripheral analgesic activity | > 10000 nM
